Where two headings read alike, the source gives them in different places.
Target: T1, BCL6 (Homo sapiens, UniProt P41182)
T1 construct: endogenous in cells; host or cells: T47D breast cancer epithelial cells
Assay: Immunofluorescence protocol for high content imaging of BCL6 (degradation) in T47D cells, 3 days compound treatment
Type: cell-based
Conditions: for DC50: read-out: Mean DC50 (nM)* category; for Dmax: read-out: Mean Dmax (%)** category
Summary of the method: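 High content immunofluorescence imaging (10×, 4 fields/well) of BCL6 using rabbit primary antibody, Alexa-488 secondary, cell mask and Hoechst nuclear stain after PFA fixation. Before staining, T47D cells (7K/well) were exposed for 3 days at 37° C to 3-fold serial dilutions of compound, top final concentration 0.1 or 1 μM.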

[1] = T47D cells, 3 days compound treatment

Row | Compound | DC50 [1] [nM] | Dmax [1] [%] | Dmax (T47D) [%] | DC50 [nM]
1 | CNC(=O)COc1cc2cc(Nc3nc(N4CCC(O[C@H]5C[C@H](N6C[C@@H](C)N(c7ccc8c(c7)CN(C7CCC(=O)NC7=O)C8=O)[C@H](C)C6)C5)CC4)ncc3Cl)ccc2n(C(C)C)c1=O (relative stereo) [Compound 179, 2-({6-[(5-chloro-2-{4-[(1r,3r)-3-[(3R*,5R*)-4-[2-(2,6-dioxopiperidin-3-yl)-1-oxo-2,3-dihydro-1H-isoindol-5-yl]-3,5-dimethylpiperazin-1-yl]cyclobutoxy]piperidin-1-yl}pyrimidin-4-yl)amino]-2-oxo-1-(propan-2-yl)-1,2-dihydroquinolin-3-yl}oxy)-N-methylacetamide] | < 10 | ≥ 70 |  | 
2 | CNC(=O)COc1cc2cc(Nc3nc(N4CCC(O[C@H]5C[C@H](N6CCC(c7ccc8c(c7C(F)(F)F)CN(C7CCC(=O)NC7=O)C8=O)CC6)C5)CC4)ncc3Cl)ccc2n(C(C)C)c1=O (some centres unmarked) [Compound 226, 2-({6-[(5-chloro-2-{4-[(1r,3r)-3-{4-[2-(2,6-dioxopiperidin-3-yl)-1-oxo-4-(trifluoromethyl)-2,3-dihydro-1H-isoindol-5-yl]piperidin-1-yl}cyclobutoxy]piperidin-1-yl}pyrimidin-4-yl)amino]-2-oxo-1-(propan-2-yl)-1,2-dihydroquinolin-3-yl}oxy)-N-methylacetamide] |  |  | ≥ 70 | < 10
3 | CNC(=O)COc1cc2cc(Nc3nc(N4CCC(O[C@H]5C[C@H](N6CC=C(c7ccc8c(c7)CN(C7CCC(=O)NC7=O)C8=O)CC6)C5)CC4)ncc3Cl)ccc2n(C(C)C)c1=O (some centres unmarked) [Compound 323, 2-({6-[(5-chloro-2-{4-[(1r,3r)-3-{4-[2-(2,6-dioxopiperidin-3-yl)-1-oxo-2,3-dihydro-1H-isoindol-5-yl]-1,2,3,6-tetrahydropyridin-1-yl}cyclobutoxy]piperidin-1-yl}pyrimidin-4-yl)amino]-2-oxo-1-(propan-2-yl)-1,2-dihydroquinolin-3-yl}oxy)-N-methylacetamide] |  |  | 50 to 70 | < 10
4 | CNC(=O)COc1cc2cc(Nc3nc(N4CCC(CN5CC(N6CCC(c7ccc8c(c7)CN(C7CCC(=O)NC7=O)C8=O)C(F)C6)C5)CC4)ncc3Cl)ccc2n(C(C)C)c1=O (centres unmarked) [Compound 217, 2-({6-[(5-chloro-2-{4-[(3-{4-[2-(2,6-dioxopiperidin-3-yl)-1-oxo-2,3-dihydro-1H-isoindol-5-yl]-3-fluoropiperidin-1-yl}azetidin-1-yl)methyl]piperidin-1-yl}pyrimidin-4-yl)amino]-2-oxo-1-(propan-2-yl)-1,2-dihydroquinolin-3-yl}oxy)-N-methylacetamide] |  |  | 50 to 70 | < 10
5 | CNC(=O)COc1cc2cc(Nc3nc(N4CCC(O[C@H]5C[C@H](N6CCN(c7ccc8c(c7C)C(=O)N(C7CCC(=O)NC7=O)C8=O)CC6)C5)CC4)ncc3Cl)ccc2n(C(C)C)c1=O (some centres unmarked) [Compound 177, 2-({6-[(5-chloro-2-{4-[(1r,3r)-3-{4-[2-(2,6-dioxopiperidin-3-yl)-4-methyl-1,3-dioxoisoindol-5-yl]piperazin-1-yl}cyclobutoxy]piperidin-1-yl}pyrimidin-4-yl)amino]-1-isopropyl-2-oxoquinolin-3-yl}oxy)-N-methylacetamide] | < 10 | ≥ 70 |  | 
6 | CNC(=O)COc1cc2cc(Nc3nc(N4CCC(CN5CC(N6CCN(c7ccc8c(c7)C(=O)N(C7CCC(=O)NC7=O)C8=O)CC6)C5)CC4)ncc3Cl)ccc2n(C(C)C)c1=O (centres unmarked) [Compound 241, 2-({6-[(5-chloro-2-{4-[(3-{4-[2-(2,6-dioxopiperidin-3-yl)-1,3-dioxo-2,3-dihydro-1H-isoindol-5-yl]piperazin-1-yl}azetidin-1-yl)methyl]piperidin-1-yl}pyrimidin-4-yl)amino]-2-oxo-1-(propan-2-yl)-1,2-dihydroquinolin-3-yl}oxy)-N-methylacetamide] |  |  | ≥ 70 | 10 to 50
7 | CNC(=O)COc1cc2cc(Nc3nc(N4CCC(O[C@H]5CC[C@H](N(C)C6CN(c7cccc8c7C(=O)N(C7CCC(=O)NC7=O)C8=O)C6)CC5)CC4)ncc3Cl)ccc2n(C(C)C)c1=O (some centres unmarked) [Compound 108, 2-[(6-{[5-chloro-2-(4-{[(1r,4r)-4-({1-[2-(2,6-dioxopiperidin-3-yl)-1,3-dioxo-2,3-dihydro-1H-isoindol-4-yl]azetidin-3-yl}(methyl)amino)cyclohexyl]oxy}piperidin-1-yl)pyrimidin-4-yl]amino}-2-oxo-1-(propan-2-yl)-1,2-dihydroquinolin-3-yl)oxy]-N-methylacetamide] | < 10 | 50 to 70 |  | 
8 | CNC(=O)COc1cc2cc(Nc3nc(N4CCC(F)(CN5CCC6(CC5)CN(c5ccc7c(c5)CN(C5CCC(=O)NC5=O)C7=O)C6(C)C)CC4)ncc3Cl)ccc2n(C(C)C)c1=O (centres unmarked) [Compound 382, 2-{[6-({5-chloro-2-[4-({2-[2-(2,6-dioxopiperidin-3-yl)-1-oxo-2,3-dihydro-1H-isoindol-5-yl]-1,1-dimethyl-2,7-diazaspiro[3.5]nonan-7-yl}methyl)-4-fluoropiperidin-1-yl]pyrimidin-4-yl}amino)-2-oxo-1-(propan-2-yl)-1,2-dihydroquinolin-3-yl]oxy}-N-methylacetamide] |  |  | ≥ 70 | < 10
9 | CNC(=O)COc1cc2c(F)c(Nc3nc(N4CCC(CN5CCC6(CC5)CN(c5ccc7c(c5)C(=O)N(C5CCC(=O)NC5=O)C7=O)C6)CC4)ncc3Cl)ccc2n(C(C)C)c1=O (centres unmarked) [Compound 347, 2-{[6-({5-chloro-2-[4-({2-[2-(2,6-dioxopiperidin-3-yl)-1,3-dioxo-2,3-dihydro-1H-isoindol-5-yl]-2,7-diazaspiro[3.5]nonan-7-yl}methyl)piperidin-1-yl]pyrimidin-4-yl}amino)-5-fluoro-2-oxo-1-(propan-2-yl)-1,2-dihydroquinolin-3-yl]oxy}-N-methylacetamide] |  |  | ≥ 70 | < 10
10 | CNC(=O)COc1cc2cc(Nc3nc(N4CCC(O[C@H]5C[C@H](N6CCN(c7cc(F)c8c(c7F)CN(C7CCC(=O)NC7=O)C8=O)CC6)C5)CC4)ncc3Cl)ccc2n(C(C)C)c1=O (some centres unmarked) [Compound 273, 2-({6-[(5-chloro-2-{4-[(1r,3r)-3-{4-[2-(2,6-dioxopiperidin-3-yl)-4,7-difluoro-1-oxo-2,3-dihydro-1H-isoindol-5-yl]piperazin-1-yl}cyclobutoxy]piperidin-1-yl}pyrimidin-4-yl)amino]-2-oxo-1-(propan-2-yl)-1,2-dihydroquinolin-3-yl}oxy)-N-methylacetamide] |  |  | 50 to 70 | < 10
11 | CNC(=O)COc1cc2cc(Nc3nc(N4CCC(O[C@H]5C[C@H](N6CC7(CCN7c7ccc8c(c7)C(=O)N(C7CCC(=O)NC7=O)C8)C6)C5)CC4)ncc3Cl)ccc2n(C(C)C)c1=O (some centres unmarked) [Compound 330, 2-({6-[(5-chloro-2-{4-[(1r,3r)-3-{1-[2-(2,6-dioxopiperidin-3-yl)-3-oxo-2,3-dihydro-1H-isoindol-5-yl]-1,6-diazaspiro [3.3]heptan-6-yl}cyclobutoxy]piperidin-1-yl}pyrimidin-4-yl)amino]-2-oxo-1-(propan-2-yl)-1,2-dihydroquinolin-3-yl}oxy)-N-methylacetamide] |  |  | < 50 | 10 to 50

Second part, led by results:

Row | DC50 [1] [nM] | Dmax [1] [%] | Compound | Dmax (T47D) [%] | DC50 [nM]
12 | < 10 | 50 to 70 | CNC(=O)COc1cc2cc(Nc3nc(N4CCN(CC5CCN(c6ccc(OC)c7c6CN(C6CCC(=O)NC6=O)C7=O)CC5)CC4)ncc3Cl)ccc2n(C(C)C)c1=O (centres unmarked) [Compound 121, 2-{[6-({5-chloro-2-[4-({1-[2-(2,6-dioxopiperidin-3-yl)-7-methoxy-1-oxo-2,3-dihydro-1H-isoindol-4-yl]piperidin-4-yl}methyl)piperazin-1-yl]pyrimidin-4-yl}amino)-2-oxo-1-(propan-2-yl)-1,2-dihydroquinolin-3-yl]oxy}-N-methylacetamide] |  | 
13 | < 10 | ≥ 70 | CNC(=O)COc1cc2c(F)c(Nc3nc(N4CCC(CN5CCC6(CC5)CN(c5ccc7c(c5)CN(C5CCC(=O)NC5=O)C7=O)C6)CC4)ncc3Cl)ccc2n(C(C)C)c1=O (centres unmarked) [Compound 161, 2-{[6-({5-chloro-2-[4-({2-[2-(2,6-dioxopiperidin-3-yl)-1-oxo-2,3-dihydro-1H-isoindol-5-yl]-2,7-diazaspiro[3.5]nonan-7-yl}methyl)piperidin-1-yl]pyrimidin-4-yl}amino)-5-fluoro-2-oxo-1-(propan-2-yl)-1,2-dihydroquinolin-3-yl]oxy}-N-methylacetamide] |  | 
14 | < 10 | < 50 | CNC(=O)COc1cc2cc(Nc3nc(N4CCN(C(=O)C5CCC6(CCN(c7ccc8c(c7)CN(C7CCC(=O)NC7=O)C8=O)C6)C5)CC4)ncc3Cl)ccc2n(C(C)C)c1=O (centres unmarked) [Compound 66, 2-[(6-{[5-chloro-2-(4-{2-[2-(2,6-dioxopiperidin-3-yl)-1-oxo-2,3-dihydro-1H-isoindol-5-yl]-2-azaspiro[4.4]nonane-7-carbonyl}piperazin-1-yl)pyrimidin-4-yl]amino}-2-oxo-1-(propan-2-yl)-1,2-dihydroquinolin-3-yl)oxy]-N-methylacetamide] |  | 
15 | 10 to 50 | < 50 | CNC(=O)COc1cc2cc(Nc3nc(N4CCC5(CCN(CC6CCN(c7ccc8c(c7)C(=O)N(C7CCC(=O)NC7=O)C8=O)CC6)C5)C4)ncc3Cl)ccc2n(C(C)C)c1=O (centres unmarked) [Compound 4, 2-{[6-({5-chloro-2-[7-({1-[2-(2,6-dioxopiperidin-3-yl)-1,3-dioxo-2,3-dihydro-1H-isoindol-5-yl]piperidin-4-yl}methyl)-2,7-diazaspiro[4.4]nonan-2-yl]pyrimidin-4-yl}amino)-2-oxo-1-(propan-2-yl)-1,2-dihydroquinolin-3-yl]oxy}-N-methylacetamide] |  | 
16 | < 10 | < 50 | CNC(=O)COc1cc2cc(Nc3nc(N4CCN(CC5CCN(c6cc7c(cc6OC)C(=O)N(C6CCC(=O)NC6=O)C7)CC5)CC4)ncc3Cl)ccc2n(C(C)C)c1=O (centres unmarked) [Compound 21, 2-{[6-({5-chloro-2-[4-({1-[2-(2,6-dioxopiperidin-3-yl)-6-methoxy-1-oxo-2,3-dihydro-1H-isoindol-5-yl]piperidin-4-yl}methyl)piperazin-1-yl]pyrimidin-4-yl}amino)-2-oxo-1-(propan-2-yl)-1,2-dihydroquinolin-3-yl]oxy}-N-methylacetamide] |  | 

Source: patent US11986532B2 (Arvinas Operations, Inc., priority 2021, dated 2024)
